Test results from article PMC4188808 (Neuropharmacology, 2014).

Legend:
[1] = system: N-methyl-D-aspartate receptor (NMDAR); set-up: species or system Rattus norvegicus
[2] = target: NMDAR expressing GluN2B (NR2B) subunits (Rattus norvegicus, UniProt P35439+Q00960); assay type: cell-based
NMDAR expressing GluN2B (NR2B) subunits, sequence (Q00960 27-1482, other chains not shown): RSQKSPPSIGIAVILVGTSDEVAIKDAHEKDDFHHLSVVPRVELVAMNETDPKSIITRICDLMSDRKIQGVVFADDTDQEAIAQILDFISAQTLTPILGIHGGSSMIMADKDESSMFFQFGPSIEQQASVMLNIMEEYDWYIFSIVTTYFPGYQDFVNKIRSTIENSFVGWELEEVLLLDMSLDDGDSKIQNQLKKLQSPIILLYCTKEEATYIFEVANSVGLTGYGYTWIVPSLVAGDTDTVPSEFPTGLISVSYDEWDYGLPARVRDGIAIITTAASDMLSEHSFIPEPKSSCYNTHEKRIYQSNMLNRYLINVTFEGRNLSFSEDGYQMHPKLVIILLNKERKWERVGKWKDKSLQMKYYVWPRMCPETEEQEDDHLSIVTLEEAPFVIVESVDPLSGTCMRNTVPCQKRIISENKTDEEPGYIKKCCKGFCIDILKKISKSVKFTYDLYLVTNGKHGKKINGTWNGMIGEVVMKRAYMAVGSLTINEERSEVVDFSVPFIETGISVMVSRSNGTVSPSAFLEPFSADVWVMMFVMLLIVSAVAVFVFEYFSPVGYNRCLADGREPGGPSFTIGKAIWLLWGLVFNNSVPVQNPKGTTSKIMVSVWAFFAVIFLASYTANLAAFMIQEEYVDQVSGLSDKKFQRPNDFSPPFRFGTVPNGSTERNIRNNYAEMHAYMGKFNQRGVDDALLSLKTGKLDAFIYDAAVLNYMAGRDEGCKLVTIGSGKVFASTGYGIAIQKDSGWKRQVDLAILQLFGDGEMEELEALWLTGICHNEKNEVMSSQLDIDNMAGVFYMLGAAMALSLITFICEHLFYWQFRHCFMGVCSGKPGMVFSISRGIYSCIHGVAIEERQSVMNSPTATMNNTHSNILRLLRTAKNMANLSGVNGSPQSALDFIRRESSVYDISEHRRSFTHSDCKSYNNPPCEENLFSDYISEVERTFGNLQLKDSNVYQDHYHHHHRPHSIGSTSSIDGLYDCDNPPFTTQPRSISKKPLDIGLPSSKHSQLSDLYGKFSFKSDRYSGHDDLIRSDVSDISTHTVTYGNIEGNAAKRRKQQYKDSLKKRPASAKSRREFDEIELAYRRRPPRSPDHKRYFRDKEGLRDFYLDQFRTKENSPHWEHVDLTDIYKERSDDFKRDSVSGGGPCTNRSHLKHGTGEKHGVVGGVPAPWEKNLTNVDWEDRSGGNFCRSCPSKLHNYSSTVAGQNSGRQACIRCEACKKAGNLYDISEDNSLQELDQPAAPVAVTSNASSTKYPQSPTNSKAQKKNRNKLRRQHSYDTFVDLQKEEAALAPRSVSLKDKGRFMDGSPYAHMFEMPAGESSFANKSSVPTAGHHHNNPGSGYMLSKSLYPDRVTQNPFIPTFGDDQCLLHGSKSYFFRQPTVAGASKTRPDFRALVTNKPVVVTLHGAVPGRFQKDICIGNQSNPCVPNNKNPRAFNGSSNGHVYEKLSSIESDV

Compound | EC50 [1] [µM] | % inhibition at 10 μM [2]
CNC1(c2ccccc2Cl)CCCCC1=O (racemic) [ketamine] | ~10 | –
CC(C(O)c1ccc(O)cc1)N1CCC(Cc2ccccc2)CC1 (centres unmarked) [ifenprodil] | – | 43.4 ± 7.3
